Format in all cases: functional
Experiment [1] concerns Enterococcus faecalis. Description: Antibacterial activity against vancomycin-susceptible Enterococcus faecalis assessed as susceptible isolates by CLSI M7-A7 broth microdilution method.
The subject of experiment [2] is Enterococcus faecalis. Description: Antibacterial activity against vancomycin-susceptible Enterococcus faecalis assessed as resistant isolates by CLSI M7-A7 broth microdilution method.
Experiment [3] relates to Streptococcus viridans. Description: Antibacterial activity against penicillin-nonsusceptible Streptococcus viridans assessed as resistant isolates by CLSI M7-A7 broth microdilution method.
Experiment [4] concerns Streptococcus viridans. Nature of the experiment: Antibacterial activity against penicillin-susceptible Streptococcus viridans assessed as susceptible isolates by CLSI M7-A7 broth microdilution method.
Experiment [5] deals with Enterococcus faecium. Description: Antibacterial activity against vancomycin-resistant Enterococcus faecium assessed as resistant isolates by CLSI M7-A7 broth microdilution method.
The test system of experiment [6] is Streptococcus agalactiae. Nature of the experiment: Antibacterial activity against erythromycin-nonsusceptible Streptococcus agalactiae assessed as resistant isolates by CLSI M7-A7 broth microdilution method.
For experiment [7], the system named is Streptococcus pyogenes. Nature of the experiment: Antibacterial activity against erythromycin-nonsusceptible Streptococcus pyogenes assessed as resistant isolates by CLSI M7-A7 broth microdilution method.
In experiment [8] the test system is Enterococcus faecium. Description: Antibacterial activity against vancomycin-resistant Enterococcus faecium assessed as susceptible isolates by CLSI M7-A7 broth microdilution method.
Experiment [9] deals with Enterococcus faecalis. Description: Antibacterial activity against vancomycin-resistant Enterococcus faecalis assessed as susceptible isolates by CLSI M7-A7 broth microdilution method.
Experiment [10] relates to Enterococcus faecalis. Nature of the experiment: Antibacterial activity against vancomycin-resistant Enterococcus faecalis assessed as resistant isolates by CLSI M7-A7 broth microdilution method.
For experiment [11], the system named is Streptococcus pyogenes. Description: Antibacterial activity against erythromycin-susceptible Streptococcus pyogenes assessed as resistant isolates by CLSI M7-A7 broth microdilution method.
Experiment [12] has as its system Streptococcus agalactiae. Nature of the experiment: Antibacterial activity against erythromycin-susceptible Streptococcus agalactiae assessed as resistant isolates by CLSI M7-A7 broth microdilution method.

The source of these data is ChEMBL document CHEMBL1671626, “In vitro profiling of ceftaroline against a collection of recent bacterial clinical isolates from across the United States” (2008).

The structures appear in SMILES notation.

Turning to `C[C@H]1COc2c(N3CCN(C)CC3)c(F)cc3c(=O)c(C(=O)O)cn1c23.C[C@H]1COc2c(N3CCN(C)CC3)c(F)cc3c(=O)c(C(=O)O)cn1c23.O` [LEVOFLOXACIN], the Activity worked out at 59.2% with Enterococcus faecalis [1]; 40.8% in the experiment with Enterococcus faecalis [2]; 7.1% in the experiment on Streptococcus viridans [3]; 100% with Streptococcus viridans [4]; 100% with Enterococcus faecium [5]; 2.4% with Streptococcus agalactiae [6]. Moreover, the Activity in the experiment with Streptococcus pyogenes [7] was 0%; with Enterococcus faecium [8] it was 0%; in the experiment on Enterococcus faecalis [9], 4%; in the experiment on Enterococcus faecalis [10], 96%; in the experiment on Streptococcus pyogenes [11], 0%; in the experiment with Streptococcus agalactiae [12] it was 0%.
Turning to `CO/N=C(\C(=O)N[C@@H]1C(=O)N2C(C(=O)O)=C(CSc3nc(=O)c(O)nn3C)CS[C@H]12)c1csc(N)n1` [CEFTRIAXONE], the Activity with Streptococcus viridans [4] stood at 100%.
